Test results as given in patent publication US12264163B2, “Compounds and methods for treating fibrotic pathologies” (Mayo Foundation for Medical Education and Research, priority 2019, dated 2025).

Tests used:
normal healthy mice = conditions: mouse, in vivo
Procedure: Bleomycin model of pulmonary fibrosis was used to test the efficacy of DHX in vivo in experimental fibrosis. Mice were administered bleomycin intratracheally at Day 0. On Day 10 injury and inflammation typically subside and fibrosis is ongoing. At Day 10 mice were randomized into two groups, one receiving DHX (5 mg/kg once daily i.n.) and the other, vehicle control. […] At day 24 the mice were sacrificed and compared using histology, hydroxyproline and qPCR. […] To assess whether DHX adversely effects lung remodeling in the absence of fibrosis, we also exposed control mice to DHX following an identical time course and route of exposure.

hepatic stellate cells = assay: TGFβ-mediated hepatic stellate cell activation, western blot of αSMA and fibronectin; assay type: cell-based, human; conditions: HSCs, TGFβ 48 hours, DHX 10 μM
Procedure: HSCs were stimulated with TGFβ for 48 hours+/−DHX (10 μM) prior to total protein isolation and western blot analysis of αSMA and Fibronectin. N=3 (***p<0.001, **p<0.01, *p<0.05 vs. Control+TGFβ).
Western Blotting: Cells were plated in EMEM containing 10% FBS overnight. Media was exchanged with EMEM containing 0.1% FBS for 24 hours. Prior to protein isolation cells were treated with the indicated concentration of compounds for the indicated time. Total protein was isolated using RIPA buffer (pH 8.0) containing Pierce Phosphatase Inhibitor (Thermo) and Halt Protease Inhibitor Cocktail (Thermo). Lysate total protein concentration was determined using Pierce BCA Protein Assay Kit (Thermo) and samples were run on a 10% polyacrylamide gel. Blots were incubated overnight with primary antibodies: pYAP (Ser 127, Cell Signaling D9W21), YAP/TAZ (Cell Signaling D24E4), GAPDH (Cell Signaling 14C10), HSC70 (Santa Cruz sc-7298), αSMA (Abcam ab5694), and fibronectin (Santa Cruz sc-9068) diluted 1:1000 in Li-Cor Odyssey Blocking Buffer. Blots were washed with TBS-Tween before 60 minute incubation with IR-dye-conjugated secondary antibodies (Li-Cor) diluted 1:10,000. Plates were imaged via a Li-Cor OdysseyXL system with quantification performed via densitometry. […]

NIH-3T3 cells = assay: Matrix remodeling measured by atomic force microscopy; assay type: cell-based, mouse; conditions: TGFβ + ascorbic acid 72 hours, then 10 μM DHX 72 hours
Procedure: NIH-3T3 cells plated onto gelatin-coated tissue culture plates stimulated to deposit matrix with 2 ng/mL TGFβ and 20 μM ascorbic acid for 72 hours prior to AFM microindentation analysis to measure stiffness (elastic modulus). The same dishes were then treated +/−10 μM DHX in the same media for another 72 hours and AFM analysis. The matrices were decellularized and passage 3 NHLFs were plated onto the matrices; after 24 hours RNA was collected and expression of profibrotic genes was analyzed. AFM analysis N=2. 75 indentation measurements were made for each plate. The box and whisker plots show min to max, quartile, and mean from one representative experiment (****p<0.0001 vs. 0.1% DMSO vehicle control) (++p<0.01, +p<0.05 vs. the same culture plate after the first 72 hour incubation). […]
Matrix Remodeling Measured by Atomic Force Microscopy: NIH-3T3 cells were plated to confluence onto gelatin coated (Cell Biologics) AFM compatible tissue culture dishes (Willco) in DMEM containing 10% FBS. […] Microindentations were performed using a 2.5 μm radius sphere-tipped probe (Novascan, IA, USA) with a spring constant determined at about 100 pN/nm by thermal fluctuation method. For each dish, 3 different areas were analyzed. […] The Young's modulus E was determined by the fitting of force curve by Hertz model using NanoScope Analysis software (Bruker) and considering Poisson's ratio of 0.5. […]

YAP = assay: Western blotting of YAP serine 127 phosphorylation; assay type: cell-based, human; conditions: IMR-90 cells, 10 μM, 2 hours
Procedure: IMR-90 cells cultured for 24 hours in media containing 0.1% FBS, treated 2 hours prior to fixation. N=3 (***p<0.001 vs. 0.1% DMSO vehicle control).
Western Blotting: Cells were plated in EMEM containing 10% FBS overnight. Media was exchanged with EMEM containing 0.1% FBS for 24 hours. Prior to protein isolation cells were treated with the indicated concentration of compounds for the indicated time. Total protein was isolated using RIPA buffer (pH 8.0) containing Pierce Phosphatase Inhibitor (Thermo) and Halt Protease Inhibitor Cocktail (Thermo). Lysate total protein concentration was determined using Pierce BCA Protein Assay Kit (Thermo) and samples were run on a 10% polyacrylamide gel. Blots were incubated overnight with primary antibodies: pYAP (Ser 127, Cell Signaling D9W21), YAP/TAZ (Cell Signaling D24E4), GAPDH (Cell Signaling 14C10), HSC70 (Santa Cruz sc-7298), αSMA (Abcam ab5694), and fibronectin (Santa Cruz sc-9068) diluted 1:1000 in Li-Cor Odyssey Blocking Buffer. Blots were washed with TBS-Tween before 60 minute incubation with IR-dye-conjugated secondary antibodies (Li-Cor) diluted 1:10,000. Plates were imaged via a Li-Cor OdysseyXL system with quantification performed via densitometry.

- lung collagen deposition (normal healthy mice): did not alter lung collagen deposition
- lung histology (normal healthy mice): did not alter lung histology
SMILES: Oc1cc2c(cc1O)[C@H]1c3ccccc3CN[C@@H]1CC2 (racemic) [Dihydrexidine]
- body weight (normal healthy mice): did not alter body weight
- expression of Ctgf, Col1a1, Acta2, and Fn1 (normal healthy mice): did not alter expression of Ctgf, Col1a1, Acta2, and Fn1
- TGFβ-mediated HSC expression of SMA and FN protein (western blotting) (hepatic stellate cells): significant reversal of both
- stiffness of cells and cell-derived matrix (AFM) (NIH-3T3 cells): significantly reduced the observed stiffness
- YAP serine 127 phosphorylation (YAP): promoted YAP serine 127 phosphorylation
